One experiment concerns the target CXCL12 (Homo sapiens, UniProt P48061). Briefly: CXCL12 dimerization (biophysical measurements). Format: binding. The note with it: sulfopeptide bound to the sTyr21 recognition site. An excerpt:
The present invention provides a constitutively monomeric CXCL12 variant (CXCL121) engineered to resist peptide-induced dimerization by maintaining steric repulsion of the chemokine helix. Six short CXCR4 peptides, centered on Tyr7, Tyr12, or Tyr21, were synthesized to study the contributions of individual sulfotyrosines in peptide binding and specificity. Peptides were titrated into CXCL12WT, CXCL122 (a constitutively dimeric variant of CXCL12 containing L36C/A65C mutations), or CXCL121 and the interaction was monitored by 2D NMR. While sulfopeptides encompassing sTyr7 and sTyr12 interacted nonspecifically, an […] Tyr7 peptide induced a new set of chemical shift perturbations in the CXCL12 monomer that were also observed upon binding of the intact CXCR41-38 N-terminal domain.

The next experiment concerns HULEC-5a. Briefly: Effects of CXCL12 and ubiquitin on thrombin-induced impairment of HULEC-5a monolayer permeability. The note with it: thrombin 50 nM, after 10 min 50 nM ligand. It counts as cell-based, human. The procedure: FIGS. 4A-4D show effects of CXCL12 and ubiquitin on thrombin-induced impairment of HULEC-5a monolayer permeability. (A) HULEC-5a were grown to a confluent monolayer on collagen-coated permeable membranes and then exposed to different concentration of thrombin for 10 min, followed by the addition of FITC-dextran. Endothelial permeability was assessed by measuring the amount of FITC-dextran that permeated through the cell monolayer. No cells: 100% permeability. RFU: Relative fluorescence units. N=3 in quadruplicate. (B) Dose-response curves for thrombin-induced permeability, data from A. 100% permeability=permeability in the absence of HULEC-5a. Open squares: Permeability at t=55 min. Light grey squares: Permeability at t=135 min. Dark grey squares: Permeability at t=255 min. […] Endothelial permeability was assessed by measuring the amount of FITC-dextran that permeated through the cell monolayer. RFU: Relative fluorescence units. […]
In vitro vascular permeability assays—Permeability assays were obtained from Millipore (ECM642) and performed as per manufacturer's instructions. […] Fluorescein isothiocyanate (FITC)-dextran (20 μg/mL) was then added on top of the monolayer and the amount of FITC-dextran that permeated through the monolayer was quantified by measuring fluorescence in a Synergy 2 Multi-mode Microplate Reader (BioTek, Winooski, Vt.) at various time points over a 255 min time period.

Experiment [1] has as its system hPPAEC. The experiment is described as follows: In vitro vascular permeability assay (FITC-dextran), hPPAEC monolayer, CXCR4/ACKR3 ligands without thrombin. To be noted: 50 nM ligand for 10 min, then FITC-dextran; no thrombin. It counts as cell-based, human. The procedure:
FIGS. 1A-1B show expression of CXCR4, ACKR3 and CXCR4:ACKR3 heteromers on hPPAEC and effects of CXCR4/ACKR3 ligands on hPPAEC monolayer permeability. (A) Detection of CXCR4, ACKR3 and CXCR4:ACKR3 heteromers on hPPAEC by PLA. Typical PLA images for the detection of individual receptors and CXCR4:ACKR3 heteromers. Images show merged PLA/40,6-diamidino-2-phenylindole dihydrochloride (DAPI) signals. Ctrl: Omission of one secondary antibody. (B) hPPAEC were grown to a confluent monolayer on collagen-coated permeable membranes. Cells were then exposed to vehicle or 50 nM of CXCR4/ACKR3 ligands for 10 minutes, as indicated, followed by the addition of FITC-dextran. Endothelial permeability was assessed by measuring the amount of FITC-dextran that permeated through the cell monolayer. N=3 in quadruplicate. No cells: 100% permeability, open squares. RFU: Relative fluorescence units. *: p<0.05 vs. vehicle (2-way ANOVA/Bonferroni's multiple comparison post hoc test).
Cells and cell lines—Human primary pulmonary artery endothelial cells (hPPAEC) (ATCC, PCS-100-022) and the human lung microvascular endothelial cell line HULEC-5a (ATCC, CRL-3244) were cultured in vascular cell basal medium (ATCC, PCS-100-030) with endothelial cell growth kit-VEGF (ATCC, PCS-100-041). The HTLA cell line, a HEK293 cell line stably expressing a tTA-dependent luciferase reporter and a β-arrestin2-TEV fusion gene, was generously provided by the laboratory of Dr. Bryan Roth and maintained in high glucose Dulbecco's Modified Eagle's Medium supplemented with 10% (vol/vol) FBS, 1× non-essential amino acids, 100 U/mL penicillin, 100 μg/mL streptomycin, 50 μg/mL hygromycin B, and 2 μg/mL puromycin. All cells were cultured at 37° C., 5% CO2 in a humidified atmosphere.
(§1) In vitro vascular permeability assays—Permeability assays were obtained from Millipore (ECM642) and performed as per manufacturer's instructions. In brief, 96-well collagen-coated permeability assay plates were pre-hydrated for 15 min, 5×10^5 cells were seeded on each well and grown to a confluent monolayer for 48 hours. Fluorescein isothiocyanate (FITC)-dextran (20 μg/mL) was then added on top of the monolayer and the amount of FITC-dextran that permeated through the monolayer was quantified by measuring fluorescence in a Synergy 2 Multi-mode Microplate Reader (BioTek, Winooski, Vt.) at various time points over a 255 min time period.

For experiment [2], the system named is hPPAEC. Briefly: Effects of CXCR4 agonists / CXCL12 variants on thrombin-induced impairment of hPPAEC monolayer permeability. It counts as cell-based, human. As to the method: FIGS. 3A-3D show effects of CXCL12 and ubiquitin on thrombin-induced impairment of hPPAEC monolayer permeability. hPPAEC were grown to a confluent monolayer on collagen-coated permeable membranes. (A) hPPAEC were pre-treated with vehicle, 100 nM of CXCL12 or ubiquitin for 10 minutes, as indicated, and then exposed to thrombin (50 nM), followed by the addition of FITC-dextran. Vehicle: no thrombin. Endothelial permeability was assessed by measuring the amount of FITC-dextran that permeated through the cell monolayer. No cells: 100% permeability (open circles). RFU: Relative fluorescence units. N=3 in quadruplicate. *: p<0.05 vs. vehicle/thrombin. (B-D) hPPAEC were exposed to 35 nM of thrombin or vehicle. After 10 min, thrombin-exposed cells were treated with vehicle, CXCL12 (50 nM) and/or AMD3100 (10 μM) (B), with vehicle, ubiquitin (50 nM) and/or AMD3100 (10 μM) (C) or with various concentrations of ubiquitin (D) followed by the addition of FITC-dextran. The experimental conditions are indicated. Endothelial permeability was assessed by measuring the amount of FITC-dextran that permeated through the cell monolayer. RFU: Relative fluorescence units. N=3 in quadruplicate. *: p<0.05 vs. thrombin/vehicle (2-way ANOVA/Bonferroni's multiple comparison post hoc test).
FIGS. 7A-7D show dose-dependent effects of CXCL12α/β, CXCL12 (3-68) and CXCL12 mutants K27A/R41A/R47A, R47E and S-S4V on thrombin-induced impairment of hPPAEC monolayer permeability. hPPAEC cells were grown to a confluent monolayer on collagen-coated permeable membranes. hPPAEC were then exposed to 35 nM of thrombin. After 10 min, thrombin-exposed cells were treated with vehicle or 50 nM (A), 5 nM (B), 0.5 nM (C) or 0.05 nM (D) of the various proteins, as indicated. In (D) 5 nM CXCL12a was used as a positive control. N=3 in quadruplicate.
FIGS. 8A-8D show dose-dependent effects of CXCL12α, CXCL121 and CXCL122 on thrombin-induced impairment of hPPAEC monolayer permeability. hPPAEC cells were grown to a confluent monolayer on collagen-coated permeable membranes. hPPAEC were then exposed to 35 nM of thrombin. After 10 min, thrombin-exposed cells were treated with vehicle or 50 nM (A), 5 nM (B), 0.5 nM (C) or 0.05 nM (D) of the various proteins, as indicated. In (D) 5 nM CXCL12α was used as a positive control. N=3 in quadruplicate.
FIGS. 9A-9B show inhibition of thrombin-induced hyper-permeability of hPPAEC by CXCL12/CXCL12 variants. % inhibition: % inhibition of thrombin-induced hyperpermeability. Data from FIGS. 7 and 8 at t=255 min. N=3 in quadruplicate. *: p<0.05 vs. CXCL12a (2-way ANOVA/Bonferroni's multiple comparison post hoc test).
as §1

Where no end group is shown, it is not given here. [ ]: non-standard residue; d: D form. sY = N[C@@H](Cc1ccc(OS(=O)(=O)O)cc1)C(=O)O

CXCL12, sequence (P48061 22-89 limits assumed): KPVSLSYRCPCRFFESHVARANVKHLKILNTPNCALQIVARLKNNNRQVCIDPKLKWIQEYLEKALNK

With “sTyr21 sulfopeptide: short CXCR4 peptide centered on sulfated Tyr21 (SGD[sY]DSM)”, the “increase of the CXCL12 dimerization affinity” value with CXCL12 is “eight-fold”.

For the substance ubiquitin, the “effect on thrombin-mediated impairment of HULEC-5a barrier function when added after thrombin” value with HULEC-5a was “significantly reduced thrombin-mediated impairment of endothelial cell barrier function”. The “effect on hPPAEC monolayer permeability” value in the experiment on hPPAEC [1] was “did not affect hPPAEC permeability”. Moreover, the “effect of pre-treatment on thrombin-induced hyper-permeability of hPPAEC” value with hPPAEC [2] (100 nM for 10 min, then thrombin (50 nM)) was “significantly attenuated thrombin-induced hyper-permeability of hPPAEC”. The “effect on thrombin-induced permeability of hPPAEC when added after thrombin” value with hPPAEC [2] (thrombin 35 nM, after 10 min CXCL12 or ubiquitin 50 nM, AMD3100 10 μM) is given as “did not modulate thrombin-induced hyper-permeability”. For the same substance, in the experiment on hPPAEC [2] (thrombin 35 nM, ubiquitin 30 nM-3 μM after thrombin), the “effect on thrombin-induced hyper-permeability at various concentrations” value is “did not attenuate thrombin-induced hyper-permeability”. Further, the “effect on thrombin-induced hyper-permeability, ubiquitin plus AMD3100” value in the experiment on hPPAEC [2] (thrombin 35 nM, ubiquitin 50 nM plus AMD3100 10 μM) is listed as “did not modulate thrombin-induced hyper-permeability”.

The record behind these values is patent US20210052701A1, “Methods of Treating Vascular Leakage Using CXCL12 Peptides” (The Medical College of Wisconsin, Inc., priority 2018, published 2021).
